Experiments:
[1] = Cmax in Sprague-Dawley rat at 2.5 mg/kg, po measured upto 24 hrs by LC-MS/MS analysis; assay type: ADME, organism-based; design: dose 2.5 mg/kg, time < 24 hrs, route po; details: in vivo
[2] = Apparent […] clearance in Sprague-Dawley rat at 0.5 mg/kg, iv measured upto 24 hrs by LC-MS/MS analysis; assay type: ADME, organism-based; details: in vivo
[3] = Metabolic stability in rat liver microsomes assessed as clearance at 1 uM measured upto 90 mins by LC-MS/MS analysis; assay type: ADME, Microsome; details: read-out: CLH
[4] = Cmax in Sprague-Dawley rat at 0.5 mg/kg, iv measured upto 24 hrs by LC-MS/MS analysis; assay type: ADME, organism-based; design: time < 24 hrs, dose 0.5 mg/kg, route iv; details: in vivo
[5] = Metabolic stability in human liver microsomes assessed as clearance at 1 uM measured upto 90 mins by LC-MS/MS analysis; assay type: ADME, Microsome; details: read-out: CLH
[6] = Metabolic stability in human liver microsomes assessed as half life at 1 uM measured upto 90 mins by LC-MS/MS analysis; assay type: ADME, Microsome
[7] = Half life in Sprague-Dawley rat at 0.5 mg/kg, iv measured upto 24 hrs by LC-MS/MS analysis; assay type: ADME, organism-based; details: in vivo
[8] = Metabolic stability in rat liver microsomes assessed as half life at 1 uM measured upto 90 mins by LC-MS/MS analysis; assay type: ADME, Microsome
[9] = AUClast in Sprague-Dawley rat at 2.5 mg/kg, po measured upto 24 hrs by LC-MS/MS analysis; assay type: ADME, organism-based; design: dose 2.5 mg/kg, time < 24 hrs, route po; details: in vivo
[10] = Oral bioavailability in Sprague-Dawley rat at 2.5 mg/kg measured upto 24 hrs by LC-MS/MS analysis; assay type: ADME, organism-based; details: in vivo
[11] = Volume of distribution at steady state in Sprague-Dawley rat at 0.5 mg/kg, iv measured upto 24 hrs by LC-MS/MS analysis; assay type: ADME, organism-based; details: in vivo, read-out: Vdss
[12] = AUClast in Sprague-Dawley rat at 0.5 mg/kg, iv measured upto 24 hrs by LC-MS/MS analysis; assay type: ADME, organism-based; design: time < 24 hrs, dose 0.5 mg/kg, route iv; details: in vivo
[13] = Half life in Sprague-Dawley rat at 2.5 mg/kg, po measured upto 24 hrs by LC-MS/MS analysis; assay type: ADME, organism-based; details: in vivo
[14] = Cmax in Sprague-Dawley rat at 5 mg/kg, po measured upto 24 hrs by LC-MS/MS analysis; assay type: ADME, organism-based; design: dose 5 mg/kg, time < 24 hrs, route po; details: in vivo
[15] = Half life in Sprague-Dawley rat at 5 mg/kg, po measured upto 24 hrs by LC-MS/MS analysis; assay type: ADME, organism-based; details: in vivo
[16] = AUClast in Sprague-Dawley rat at 5 mg/kg, po measured upto 24 hrs by LC-MS/MS analysis; assay type: ADME, organism-based; design: dose 5 mg/kg, time < 24 hrs, route po; details: in vivo
[17] = AUClast in Sprague-Dawley rat at 1 mg/kg, iv measured upto 24 hrs by LC-MS/MS analysis; assay type: ADME, organism-based; design: dose 1 mg/kg, time < 24 hrs, route iv; details: in vivo
[18] = Volume of distribution at steady state in Sprague-Dawley rat at 1 mg/kg, iv measured upto 24 hrs by LC-MS/MS analysis; assay type: ADME, organism-based; details: in vivo, read-out: Vdss
[19] = Apparent […] clearance in Sprague-Dawley rat at 1 mg/kg, iv measured upto 24 hrs by LC-MS/MS analysis; assay type: ADME, organism-based; details: in vivo
[20] = Oral bioavailability in Sprague-Dawley rat at 5 mg/kg measured upto 24 hrs by LC-MS/MS analysis; assay type: ADME, organism-based; details: in vivo
[21] = Half life in Sprague-Dawley rat at 1 mg/kg, iv measured upto 24 hrs by LC-MS/MS analysis; assay type: ADME, organism-based; details: in vivo
[22] = Cmax in Sprague-Dawley rat at 1 mg/kg, iv measured upto 24 hrs by LC-MS/MS analysis; assay type: ADME, organism-based; design: dose 1 mg/kg, time < 24 hrs, route iv; details: in vivo

Compound	CLint scaled at 1 µM [3] [mL/min/kg]	CLint scaled at 1 µM [5] [mL/min/kg]	half-life at 1 µM [6] [h]	half-life at 1 µM [8] [h]	Cmax [14] [ng/mL]	half-life [15] [h]	AUC(0-t) at 24 h [16] [ng·h/mL]	AUC(0-t) at 24 h [17] [ng·h/mL]	Vd [18] [L/kg]	CL/F [19] [mL/min/kg]	bioavailability [20] [%]	half-life [21] [h]	Cmax [22] [ng/mL]	also measured
O=C1CCc2cc(F)c(C(=O)Nc3cccc(-c4nncn4C4CC4)n3)cc2N1	10.2	3.8	7.54	4.07	–	–	–	–	–	–	–	–	–	Cmax [1]: 345 ng/mL; CL/F [2]: 17.7 mL/min/kg; Cmax [4]: 447 ng/mL; half-life [7]: 0.72 h; AUC(0-t) at 24 h [9]: 1330 ng·h/mL; bioavailability [10]: 57.4%; Vd [11]: 0.96 L/kg; AUC(0-t) at 24 h [12]: 469 ng·h/mL; half-life [13]: 2 h
CC(C)n1cnnc1-c1cccc(NC(=O)c2cc3c(cc2F)OC(C)(C)C(=O)N3)n1	–	–	–	–	–	–	–	–	–	–	–	–	–	Cmax [1]: 554 ng/mL; CL/F [2]: 30 mL/min/kg; Cmax [4]: 350 ng/mL; half-life [7]: 0.74 h; AUC(0-t) at 24 h [9]: 1260 ng·h/mL; bioavailability [10]: 95%; Vd [11]: 1.35 L/kg; AUC(0-t) at 24 h [12]: 276 ng·h/mL; half-life [13]: 1.39 h
CC(C)n1cnnc1-c1cccc(NC(=O)c2cc3c(cc2F)CCC(=O)N3C)n1	34.3	7.3	3.95	1.2	964	1.13	2660	668	1.32	24.8	80.7	0.86	594	–
O=C(Nc1cccc(-c2nncn2CC2CC2)c1)c1cc2c(cc1F)OCc1cncn1-2	248	25.8	1.12	0.167	635	0.97	865	431	1.08	38.5	40.2	0.55	812	–
CC(CO)n1cnnc1-c1cccc(NC(=O)c2cc3c(cc2F)CCCC(=O)N3C)n1 (stereo not drawn)	14	8.5	3.41	2.96	28	1.51	61	216	2.36	76.7	5.9	0.63	440	–
CN1C(=O)CCCc2cc(F)c(C(=O)Nc3cccc(-c4nncn4C4CC4)n3)cc21	13.2	11.1	2.6	3.15	1850	1.97	7530	1340	1.14	12.2	121	1.22	799	–

More lines, main results first:

CLint scaled at 1 µM [3] [mL/min/kg]	CLint scaled at 1 µM [5] [mL/min/kg]	half-life at 1 µM [6] [h]	half-life at 1 µM [8] [h]	Cmax [14] [ng/mL]	half-life [15] [h]	AUC(0-t) at 24 h [16] [ng·h/mL]	AUC(0-t) at 24 h [17] [ng·h/mL]	Vd [18] [L/kg]	CL/F [19] [mL/min/kg]	bioavailability [20] [%]	half-life [21] [h]	Cmax [22] [ng/mL]	Compound	also measured
6.6	3.3	8.8	6.24	1270	1.63	4830	1270	1.07	12.8	77.7	1.24	1070	CC(C)n1cnnc1-c1cccc(NC(=O)c2cc3c(cc2F)CCCC(=O)N3)n1	–
4.7	2.4	11.9	8.87	829	3.82	2720	1170	0.7	14.2	47	0.71	1220	O=C1CCCc2cc(F)c(C(=O)Nc3cccc(-c4nncn4C4CC4)n3)cc2N1	–
13.7	3	9.74	3.02	1260	1.86	4290	1630	0.85	10.2	56.4	1.11	1040	CC(C)n1cnnc1-c1cccc(NC(=O)c2cc3c(cc2F)OCC(=O)N3)n1	–
